Laboratory results: ChEMBL document CHEMBL3997794, “Design and synthesis of benzodiazepine analogs as isoform-selective human lysine deacetylase inhibitors” (Eur J Med Chem, 2017)

How the values were obtained:
[1] = molecular target: T1, Protein deacetylase HDAC6 (Homo sapiens) (UniProt Q9UBN7); conditions: at 30 µM
T1 sequence (whole entry): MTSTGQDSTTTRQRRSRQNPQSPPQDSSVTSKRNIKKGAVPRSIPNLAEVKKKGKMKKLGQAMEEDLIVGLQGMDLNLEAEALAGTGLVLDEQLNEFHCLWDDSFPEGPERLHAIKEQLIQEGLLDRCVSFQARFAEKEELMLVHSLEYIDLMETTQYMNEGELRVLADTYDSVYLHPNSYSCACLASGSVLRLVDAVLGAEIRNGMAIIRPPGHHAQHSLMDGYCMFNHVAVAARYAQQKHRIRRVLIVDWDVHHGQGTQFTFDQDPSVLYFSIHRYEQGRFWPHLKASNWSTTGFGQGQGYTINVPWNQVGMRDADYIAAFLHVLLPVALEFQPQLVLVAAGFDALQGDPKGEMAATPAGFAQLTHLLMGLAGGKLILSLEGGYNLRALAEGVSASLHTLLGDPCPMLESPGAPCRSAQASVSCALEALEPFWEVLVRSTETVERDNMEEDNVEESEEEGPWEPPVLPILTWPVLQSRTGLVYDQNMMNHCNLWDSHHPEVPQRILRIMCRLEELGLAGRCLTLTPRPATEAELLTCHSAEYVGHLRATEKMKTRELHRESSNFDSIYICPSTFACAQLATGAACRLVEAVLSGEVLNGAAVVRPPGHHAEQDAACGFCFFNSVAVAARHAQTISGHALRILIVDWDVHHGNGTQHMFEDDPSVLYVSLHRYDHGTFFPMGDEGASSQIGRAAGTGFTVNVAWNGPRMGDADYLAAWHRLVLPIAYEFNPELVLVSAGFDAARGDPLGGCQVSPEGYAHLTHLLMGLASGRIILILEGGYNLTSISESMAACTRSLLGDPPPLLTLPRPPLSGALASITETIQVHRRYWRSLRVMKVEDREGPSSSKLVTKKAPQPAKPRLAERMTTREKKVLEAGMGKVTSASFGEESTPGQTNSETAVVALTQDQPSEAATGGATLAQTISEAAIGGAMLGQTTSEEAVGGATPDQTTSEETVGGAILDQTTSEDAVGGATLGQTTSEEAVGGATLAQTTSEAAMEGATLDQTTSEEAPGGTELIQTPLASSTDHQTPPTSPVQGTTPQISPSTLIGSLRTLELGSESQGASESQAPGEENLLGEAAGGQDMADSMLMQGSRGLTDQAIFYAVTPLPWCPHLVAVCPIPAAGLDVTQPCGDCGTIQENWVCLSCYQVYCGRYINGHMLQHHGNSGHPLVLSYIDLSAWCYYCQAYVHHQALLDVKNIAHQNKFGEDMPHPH
Description: Inhibition of human KDAC6 at 30 uM using FITC-labeled histone H4 acetylated peptide as substrate after 60 mins by fluorescence assay relative to control

[2] = molecular target: T2, Histone deacetylase 3 (Homo sapiens, UniProt O15379); assay: Inhibition of human KDAC3 at 30 uM using FITC-labeled p53 acetylated peptide as substrate after 60 mins by fluorescence assay relative to control
T2 sequence (O15379 whole entry): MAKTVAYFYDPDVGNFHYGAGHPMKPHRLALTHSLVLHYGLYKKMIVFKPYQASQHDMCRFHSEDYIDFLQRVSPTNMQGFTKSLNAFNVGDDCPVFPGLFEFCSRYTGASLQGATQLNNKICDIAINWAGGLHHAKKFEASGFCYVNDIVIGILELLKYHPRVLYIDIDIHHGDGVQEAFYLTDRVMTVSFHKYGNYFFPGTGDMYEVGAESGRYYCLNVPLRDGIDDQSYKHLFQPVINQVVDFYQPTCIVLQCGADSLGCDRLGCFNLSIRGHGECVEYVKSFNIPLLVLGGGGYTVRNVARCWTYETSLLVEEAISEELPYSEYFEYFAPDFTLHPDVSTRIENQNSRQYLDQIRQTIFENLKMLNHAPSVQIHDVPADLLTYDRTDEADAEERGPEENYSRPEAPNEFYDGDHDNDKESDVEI

[3] = molecular target: T3, Protein deacetylase HDAC6 (Homo sapiens, UniProt Q9UBN7); assay: Inhibition of human KDAC6 using FITC-labeled histone H4 acetylated peptide as substrate after 60 mins by fluorescence assay
T3 sequence (Q9UBN7 whole entry): T1 sequence (whole entry)

[4] = molecular target: T2, Histone deacetylase 3; assay: Inhibition of human KDAC3 using FITC-labeled p53 acetylated peptide as substrate after 60 mins by fluorescence assay
[5] = molecular target: T4, Histone deacetylase 8 (Homo sapiens, UniProt Q9BY41); assay: Inhibition of human KDAC8 after 60 mins by fluorescence assay
T4 sequence (Q9BY41 whole entry): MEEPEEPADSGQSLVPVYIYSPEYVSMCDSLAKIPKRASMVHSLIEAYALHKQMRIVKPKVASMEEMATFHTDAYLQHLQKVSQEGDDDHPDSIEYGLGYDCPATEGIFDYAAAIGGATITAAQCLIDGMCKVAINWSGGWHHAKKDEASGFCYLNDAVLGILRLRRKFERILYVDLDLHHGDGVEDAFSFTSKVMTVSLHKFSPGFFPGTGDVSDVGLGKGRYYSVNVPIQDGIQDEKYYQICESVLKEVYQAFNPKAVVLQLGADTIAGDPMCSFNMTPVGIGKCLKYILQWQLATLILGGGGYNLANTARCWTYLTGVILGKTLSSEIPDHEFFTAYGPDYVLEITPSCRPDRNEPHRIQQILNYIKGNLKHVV

[6] = molecular target: T5, Histone deacetylase 1 (Homo sapiens, UniProt Q13547); assay: Inhibition of human KDAC1 at 30 uM using substrate A after 60 mins by fluorescence assay relative to control
T5 sequence (Q13547 whole entry): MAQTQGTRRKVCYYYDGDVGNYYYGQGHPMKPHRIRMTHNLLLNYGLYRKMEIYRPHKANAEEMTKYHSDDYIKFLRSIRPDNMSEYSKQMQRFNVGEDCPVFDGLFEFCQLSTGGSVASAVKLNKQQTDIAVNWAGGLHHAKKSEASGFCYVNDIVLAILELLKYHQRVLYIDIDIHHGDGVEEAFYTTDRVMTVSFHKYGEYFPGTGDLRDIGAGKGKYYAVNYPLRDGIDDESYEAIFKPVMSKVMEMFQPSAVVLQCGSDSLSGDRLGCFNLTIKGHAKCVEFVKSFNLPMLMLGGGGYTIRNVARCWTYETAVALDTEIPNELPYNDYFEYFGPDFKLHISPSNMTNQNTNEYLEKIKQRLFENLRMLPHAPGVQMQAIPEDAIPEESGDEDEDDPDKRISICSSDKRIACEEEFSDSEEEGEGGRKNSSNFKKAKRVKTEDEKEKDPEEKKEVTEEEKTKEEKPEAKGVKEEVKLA

[7] = molecular target: T6, Histone deacetylase 8 (Homo sapiens) (UniProt Q9BY41); assay: Inhibition of human KDAC8 at 30 uM after 60 mins by fluorescence assay relative to control
T6 sequence (whole entry): T4 sequence (Q9BY41 whole entry)

[8] = molecular target: T5, Histone deacetylase 1; assay: Inhibition of human KDAC1 using substrate A after 60 mins by fluorescence assay

| Structure (SMILES) | inhibition [1] [%] | inhibition [2] [%] | IC50 [3] [µM] | IC50 [4] [µM] | IC50 [5] [µM] | inhibition [6] [%] | inhibition [7] [%] | IC50 [8] [µM] |
| --- | --- | --- | --- | --- | --- | --- | --- | --- |
| CC(C)(C)OC(=O)n1c(C[C@@H]2N=C(c3ccccc3)c3ccccc3N(CCCCC(=O)NO)C2=O)cc2ccccc21 | 85 | 93.1 | 6.92 | 5.21 | 8.39 | 46.9 | 79.7 | > 30 |
| CC(C)C[C@@H]1N=C(c2ccccc2)c2ccccc2NC1=O | 5.48 | 0 | > 30 | > 30 | > 30 | 2.85 | 0 | > 30 |
| CC(C)(C)OC(=O)CC[C@@H]1N=C(c2ccccc2)c2ccccc2N(CCCCC(=O)NO)C1=O | 93.7 | 99.9 | 2.35 | 1.03 | 26.1 | 83.8 | 52.5 | 4.57 |
| C[C@@H](O)[C@@H]1N=C(c2ccccc2)c2ccccc2N(CCCCC(=O)NO)C1=O | 70.1 | 94.2 | 11.6 | 1.8 | > 30 | 66.5 | 40.3 | 11.2 |
| CC(C)(C)OC(=O)n1cc(C[C@@H]2N=C(c3ccccc3)c3ccccc3NC2=O)c2ccccc21 | 0 | 1.32 | > 30 | > 30 | > 30 | 6.47 | 0 | > 30 |
| COC(=O)CCCCN1C(=O)[C@H]([C@@H](C)OCc2ccccc2)N=C(c2ccccc2)c2ccccc21 | 0 | 7.91 | > 30 | > 30 | > 30 | 0.64 | 6.88 | > 30 |
| O=C(CCCCN1C(=O)[C@H](Cc2cc3ccccc3[nH]2)N=C(c2ccccc2)c2ccccc21)NO | 93.2 | 98.9 | 1.95 | 1.01 | > 30 | 60 | 34.1 | 16.8 |
| CC(C)(C)OC(=O)NCCCC[C@@H]1N=C(c2ccccc2)c2ccccc2N(CCCCC(=O)NO)C1=O | 89.9 | 98.8 | 3.06 | 0.59 | 21.8 | 84.4 | 56 | 4.63 |
| CC(C)(C)OC(=O)n1c(C[C@@H]2N=C(c3ccccc3)c3ccccc3N(CCCCC(=O)O)C2=O)cc2ccccc21 | 7.4 | 0.79 | > 30 | > 30 | > 30 | 11.3 | 23.2 | > 30 |
| O=C1Nc2ccccc2C(c2ccccc2)=N[C@H]1Cc1ccccc1 | 3.33 | 0 | > 30 | > 30 | > 30 | 0.91 | 0 | > 30 |
| O=C(CCCCN1C(=O)[C@H](CO)N=C(c2ccccc2)c2ccccc21)NO | 74.4 | 85.9 | 6.35 | 4.94 | > 30 | 41 | 19.9 | > 30 |
| O=C(C[C@H]1N=C(c2ccccc2)c2ccccc2NC1=O)NO | 0 | 1.64 | > 30 | > 30 | > 30 | 9.14 | 19 | > 30 |
| O=C(O)CCCCN1C(=O)CN=C(c2ccccc2)c2ccccc21 | 0 | 0 | > 30 | > 30 | > 30 | 6.45 | 4.33 | > 30 |
| C[C@@H]1N=C(c2ccccc2)c2ccccc2N(CCCCC(=O)NO)C1=O | 92.7 | 93.8 | 2.95 | 1.8 | 24.7 | 68.4 | 53.8 | 12.7 |
| CC(C)(C)OC[C@@H]1N=C(c2ccccc2)c2ccccc2N(CCCCC(=O)NO)C1=O | 85.1 | 94.6 | 5.05 | 1.21 | > 30 | 73.7 | 26.9 | 9 |
| O=C(O)CCCCN1C(=O)[C@H](Cc2ccccc2)N=C(c2ccccc2)c2ccccc21 | 0 | 0.91 | > 30 | > 30 | > 30 | 11.9 | 6.22 | > 30 |
